According to patent US6855513B1 (priority 1999, dated 2005):

Columns and labels:
Assay type in all cases: cell-based, Pseudomonas aeruginosa
[1] = system: qsc100 (Peptide synthetase); assay: Acyl-HSL induction of β-galactosidase in qsc100 mutant; settings: qsc100, Class I; 3OC12-HSL 2 μM, C4-HSL 5 μM
qsc133A&B (AcrB) = assay: Acyl-HSL induction of β-galactosidase in qsc133A&B mutants; settings: Class IV, 3OC12-HSL 2 μM, C4-HSL 5 μM
qsc116 = assay: Acyl-HSL induction of β-galactosidase in qsc116 mutant; settings: qsc116, Class II; 3OC12-HSL 2 μM, C4-HSL 5 μM
qsc101 = assay: Acyl-HSL induction of β-galactosidase in qsc101 mutant; settings: qsc101, Class I; 3OC12-HSL 2 μM, C4-HSL 5 μM
[2] = system: qsc137 (Asparagine synthetase); assay: Acyl-HSL induction of β-galactosidase in qsc137 mutant; settings: qsc137, Class IV; 3OC12-HSL 2 μM, C4-HSL 5 μM
[3] = system: qsc130 (glc operon transcriptional activator); assay: Acyl-HSL induction of β-galactosidase in qsc130 mutant; settings: qsc130, Class III; 3OC12-HSL 2 μM, C4-HSL 5 μM
qsc108 (ORF 5) = assay: Acyl-HSL induction of β-galactosidase in qsc108 mutant; settings: qsc108, Class II; 3OC12-HSL 2 μM, C4-HSL 5 μM
[4] = system: qcs117 (ACP-like protein); assay: Acyl-HSL induction of β-galactosidase in qcs117 mutant; settings: qcs117, Class III; 3OC12-HSL 2 μM, C4-HSL 5 μM
qsc118 (RhlI) = assay: Acyl-HSL induction of β-galactosidase in qsc118 mutant; settings: qsc118, Class III; 3OC12-HSL 2 μM, C4-HSL 5 μM
qsc138 = assay: Acyl-HSL induction of β-galactosidase in qsc138 mutant; settings: qsc138, Class IV; 3OC12-HSL 2 μM, C4-HSL 5 μM
[5] = system: qsc128 (Hydrogen cyanide synthase HcnB); settings: qsc128, Class III; 3OC12-HSL 2 μM, C4-HSL 5 μM
[6] = system: qsc109 (Bacitracin synthetase 3); assay: Acyl-HSL induction of β-galactosidase in qsc109 mutant; settings: qsc109, Class II; 3OC12-HSL 2 μM, C4-HSL 5 μM
[7] = system: qsc105 (FAD-binding protein); assay: Acyl-HSL induction of β-galactosidase in qsc105 mutant; settings: qsc105, Class I; 3OC12-HSL 2 μM, C4-HSL 5 μM
qsc106A&B = assay: Acyl-HSL induction of β-galactosidase in qsc106A&B mutants; settings: Class I, 3OC12-HSL 2 μM, C4-HSL 5 μM
qsc103 = assay: Acyl-HSL induction of β-galactosidase in qsc103 mutant; settings: qsc103, Class I; 3OC12-HSL 2 μM, C4-HSL 5 μM
[8] = system: qsc125 (Zeaxanthin synthesis); assay: Acyl-HSL induction of β-galactosidase in qsc125 mutant; settings: qsc125, Class III; 3OC12-HSL 2 μM, C4-HSL 5 μM
[9] = system: qsc134 (Saframycin Mx1 synthetase A); assay: Acyl-HSL induction of β-galactosidase in qsc134 mutant; settings: qsc134, Class IV; 3OC12-HSL 2 μM, C4-HSL 5 μM
[10] = system: qsc123 (9-Cis retinol dehydrogenase); assay: Acyl-HSL induction of β-galactosidase in qsc123 mutant; settings: qsc123, Class III; 3OC12-HSL 2 μM, C4-HSL 5 μM
[11] = system: qsc121 (3-Oxoacyl ACP synthase); assay: Acyl-HSL induction of β-galactosidase in qsc121 mutant; settings: qsc121, Class III; 3OC12-HSL 2 μM, C4-HSL 5 μM
qsc107 = assay: Acyl-HSL induction of β-galactosidase in qsc107 mutant; settings: qsc107, Class I; 3OC12-HSL 2 μM, C4-HSL 5 μM
qsc127 = assay: Acyl-HSL induction of β-galactosidase in qsc127 mutant; settings: qsc127, Class III; 3OC12-HSL 2 μM, C4-HSL 5 μM
[12] = system: qsc104 (Polyamine binding protein); assay: Acyl-HSL induction of β-galactosidase in qsc104 mutant; settings: qsc104, Class I; 3OC12-HSL 2 μM, C4-HSL 5 μM
[13] = system: qsc113 (Trransmembrane protein); assay: Acyl-HSL induction of β-galactosidase in qsc113 mutant; settings: qsc113, Class II; 3OC12-HSL 2 μM, C4-HSL 5 μM
[14] = system: qsc120 (Chloramphenicol resistance); assay: Acyl-HSL induction of β-galactosidase in qsc120 mutant; settings: qsc120, Class III; 3OC12-HSL 2 μM, C4-HSL 5 μM
[15] = system: qsc111 (Pyoverdine synthetase D); assay: Acyl-HSL induction of β-galactosidase in qsc111 mutant; settings: qsc111, Class II; 3OC12-HSL 2 μM, C4-HSL 5 μM
[16] = system: qsc129A&B (Cellulose binding protein p40); assay: Acyl-HSL induction of β-galactosidase in qsc129A&B mutants; settings: Class III, 3OC12-HSL 2 μM, C4-HSL 5 μM
qsc119 (RhlB) = assay: Acyl-HSL induction of β-galactosidase in qsc119 mutant; settings: qsc119, Class III; 3OC12-HSL 2 μM, C4-HSL 5 μM
qtc136 = assay: Acyl-HSL induction of β-galactosidase in qtc136 mutant; settings: qtc136, Class IV; 3OC12-HSL 2 μM, C4-HSL 5 μM
qsc131 (PhzC) = assay: Acyl-HSL induction of β-galactosidase in qsc131 mutant; settings: qsc131, Class III; 3OC12-HSL 2 μM, C4-HSL 5 μM
[17] = system: qsc126 (Pristanimycin I synthase 3 & 4); assay: Acyl-HSL induction of β-galactosidase in qsc126 mutant; settings: qsc126, Class III; 3OC12-HSL 2 μM, C4-HSL 5 μM

| SMILES | Signal response (β-galactosidase activity with signal(s) divided by activity without added signals), maximum [1] | Signal response (β-galactosidase activity with signal(s) divided by activity without added signals), maximum (qsc133A&B (AcrB)) | Signal response (β-galactosidase activity with signal(s) divided by activity without added signals), maximum (qsc116) | Signal response (β-galactosidase activity with signal(s) divided by activity without added signals), maximum (qsc101) | Signal response (β-galactosidase activity with signal(s) divided by activity without added signals), maximum [2] | Signal response (β-galactosidase activity with signal(s) divided by activity without added signals), maximum [3] | Signal response (β-galactosidase activity with signal(s) divided by activity without added signals), maximum (qsc108 (ORF 5)) | Signal response (β-galactosidase activity with signal(s) divided by activity without added signals), maximum [4] | Signal response (β-galactosidase activity with signal(s) divided by activity without added signals), maximum (qsc118 (RhlI)) | Signal response (β-galactosidase activity with signal(s) divided by activity without added signals), maximum (qsc138) | Signal response (β-galactosidase activity with signal(s) divided by activity without added signals), maximum [5] | Signal response (β-galactosidase activity with signal(s) divided by activity without added signals), maximum [6] | Signal response (β-galactosidase activity with signal(s) divided by activity without added signals), maximum [7] | Signal response (β-galactosidase activity with signal(s) divided by activity without added signals), maximum (qsc106A&B) | Signal response (β-galactosidase activity with signal(s) divided by activity without added signals), maximum (qsc103) | Signal response (β-galactosidase activity with signal(s) divided by activity without added signals), maximum [8] | Signal response (β-galactosidase activity with signal(s) divided by activity without added signals), maximum [9] | Signal response (β-galactosidase activity with signal(s) divided by activity without added signals), maximum [10] | Signal response (β-galactosidase activity with signal(s) divided by activity without added signals), maximum [11] | Signal response (β-galactosidase activity with signal(s) divided by activity without added signals), maximum (qsc107) | other results |
| --- | --- | --- | --- | --- | --- | --- | --- | --- | --- | --- | --- | --- | --- | --- | --- | --- | --- | --- | --- | --- | --- |
| CCCCCCCCCC(=O)CC(=O)N[C@H]1CCOC1=O [3OC12-HSL, N-(3-oxododecanoyl) homoserine lactone] | 65 | 1 | 5 | 145 | 1 | 5 | 13 | 22 | 38 | 3 | 19 | 13 | 40 | 9 | 85 | 20 | 6 | 14 | 13 | 44 | Signal response (β-galactosidase activity with signal(s) divided by activity without added signals), maximum (qsc127): 5; Signal response (β-galactosidase activity with signal(s) divided by activity without added signals), maximum [12]: 7; Signal response (β-galactosidase activity with signal(s) divided by activity without added signals), maximum [13]: 5; Signal response (β-galactosidase activity with signal(s) divided by activity without added signals), maximum [14]: 3; Signal response (β-galactosidase activity with signal(s) divided by activity without added signals), maximum [15]: 11; Signal response (β-galactosidase activity with signal(s) divided by activity without added signals), maximum [16]: 15; Signal response (β-galactosidase activity with signal(s) divided by activity without added signals), maximum (qsc119 (RhlB)): 9; Signal response (β-galactosidase activity with signal(s) divided by activity without added signals), maximum (qtc136): 7; Signal response (β-galactosidase activity with signal(s) divided by activity without added signals), maximum (qsc131 (PhzC)): 50; Signal response (β-galactosidase activity with signal(s) divided by activity without added signals), maximum [17]: 3 |
| CCCC(=O)N[C@H]1CCOC1=O [C4-HSL, butanoyl-HSL] | 3 | 1 | 1 | 1 | 1 | 1 | 1 | 22 | 14 | 5 | 12 | 1 | 1 | 1 | 1 | 65 | 1 | 28 | 27 | 2 | Signal response (β-galactosidase activity with signal(s) divided by activity without added signals), maximum (qsc127): 2; Signal response (β-galactosidase activity with signal(s) divided by activity without added signals), maximum [12]: 2; Signal response (β-galactosidase activity with signal(s) divided by activity without added signals), maximum [13]: 1; Signal response (β-galactosidase activity with signal(s) divided by activity without added signals), maximum [14]: 7; Signal response (β-galactosidase activity with signal(s) divided by activity without added signals), maximum [15]: 1; Signal response (β-galactosidase activity with signal(s) divided by activity without added signals), maximum [16]: 1; Signal response (β-galactosidase activity with signal(s) divided by activity without added signals), maximum (qsc119 (RhlB)): 7; Signal response (β-galactosidase activity with signal(s) divided by activity without added signals), maximum (qtc136): 3; Signal response (β-galactosidase activity with signal(s) divided by activity without added signals), maximum (qsc131 (PhzC)): 168; Signal response (β-galactosidase activity with signal(s) divided by activity without added signals), maximum [17]: 5 |
